pIC50: −log10 of the molar value. Values after ≈ are worked out from the molar mass of the structure shown. Like-named read-outs stand apart in the source and are kept apart here.
What was measured:
[1] = tested on: methicillin-resistant S. aureus (MRSA) 63718; test: In vitro antistaphylococcal activity, microtitration broth MIC; type: cell-based; conditions: Staphylococcus aureus
[2] = tested on: vancomycin-resistant E. faecalis (VRE) 368; test: In vitro antienterococcal activity, microtitration broth MIC; type: cell-based, Enterococcus faecalis
[3] = tested on: vancomycin-resistant E. faecalis (VRE) 725B; test: as above; type: cell-based, Enterococcus faecalis; conditions: 24 h
[4] = tested on: Staphylococcus aureus ATCC 29213; test: In vitro antistaphylococcal activity, microtitration broth MIC; type: cell-based; conditions: for MIC: Staphylococcus aureus
[5] = tested on: Mycobacterium smegmatis ATCC 700084; test: In vitro antimycobacterial activity, broth dilution MIC; type: cell-based; conditions: Mycolicibacterium smegmatis
[6] = Lipophilicity determination by RP-HPLC (log k, log D); type: physicochemical; conditions: for log k: MeOH 72%/H2O 28%; for log D6.5: MeOH 72%/acetate buffered saline pH 6.5; for log D7.4: MeOH 72%/acetate buffered saline pH 7.4
Experimental: In addition to the mentioned ADME profile, it is responsible for interactions with biological targets. Lipophilicity is recognized as one of the most important parameters influencing ADME and bioactivity and is also part, e.g., of Lipinski’s Rule of Five (Ro5). This thermodynamic parameter describing the molecule’s affinity for an aqueous or relatively lipophilic environment can be characterized by the logarithm of the partition coefficient (log P). In this study, lipophilicity was measured by reversed-phase high-performance liquid chromatography (RP-HPLC) under isocratic conditions with methanol as the organic modifier in the aqueous mobile phase and the logarithm of the capacity factor k was calculated, which is used as the lipophilicity index converted to the log P scale. In addition to the log k values, the logarithm of the distribution coefficient DpH at pH 6.5 and 7.4 was determined to clarify the behavior of the compounds under physiological conditions and possible ionization. Instead of water, a buffer of suitable pH was used as part of the mobile phase. In addition to the above-mentioned experimental methods, commercially available ChemBioDraw Ultra 13.0 and ACD/Percepta ver. 2012 programs were used to calculate the lipophilicity values of all prepared compounds.
A HPLC separation module Waters Alliance 2695 XE equipped with a Waters Dual Absorbance Detector 2486 (Waters Corp., Milford, MA, USA) was used. A chromatographic column Symmetry® C18 5 μm, 4.6 × 250 mm, Part No. W21751W016 (Waters Corp., Milford, MA, USA) was used. The HPLC separation process was monitored by Empower® 3 Chromatography Manager Software (Waters Corp.). Isocratic elution by a mixture of MeOH p.a. (72%) and H2O-HPLC Mili-Q grade (28%) as a mobile phase was used for the determination of capacity factor k. Isocratic elution by a mixture of MeOH p.a. (72%) and acetate buffered saline (pH 7.4 and pH 6.5) (28%) as a mobile phase was used for the determination of distribution coefficient expressed as D7.4 and D6.5. The total flow of the column was 1.0 mL/min, injection 20 μL, column temperature 40 °C, and sample temperature 10 °C. The detection wavelength of 210 nm was chosen. A KI methanolic solution was used for the determination of the dead times (tD). Retention times (tR) were measured in minutes. The capacity factors k were calculated according to the formula k = (tR − tD)/tD, where tR is the retention time of the solute, and tD is the dead time obtained using an unretained analyte. The distribution coefficients DpH were calculated according to the formula DpH = (tR − tD)/tD. Each experiment was repeated three times.

[7] = tested on: porcine monocyte-derived macrophages (MDM); test: In vitro cell viability, CCK-8; type: cell-based; conditions: Sus scrofa, Macrophage, 10% fetal bovine serum; for pIC50: 24 h, read-out: IC50 MDM 10% FSB; for IC50: read-out: log(1/IC50 [M]) MDM 10% FSB (converted)
Experimental: The effect of the compounds on viability of eukaryotic cells was evaluated on human leukemia cell line THP-1, human synovial cell line SW982, and isolated primary porcine monocytes-delivered macrophages (MDM). The general cytotoxic effect was studied on THP-1 cells in the serum-free medium (only THP-1 as the only cells used in this study are able to survive in serum-free medium). Most of the compounds had no cytotoxic effect on THP-1 cells. […] This could be caused by the direct interaction of such compounds with serum proteins or by the effect of mitogens, cytokines, and hormones present in the serum. Obviously, the full medium is closer to physiological conditions in living organisms, so it can be assumed that these compounds could be non-toxic there.
Porcine monocyte-derived macrophages (MDMs) were prepared, as described previously. Briefly, blood was collected from three-month-old pigs and peripheral blood mononuclear cells (PBMC) were isolated by gradient centrifugation (830× g, 40 min) using Histopaque-1077 (Sigma). CD14+ cells were isolated by positive magnetic bead selection with LS separation columns (Miltenyi Biotec, Bergisch Gladbach, Germany). Isolated monocytes were cultured in 96-well plates at a concentration of 1 × 10^5 cells per well in 0.2 mL of DMEM supplemented with 10% FBS and 1% antibiotics (Antibiotic Antimycotic Solution 100 × 10,000 units penicillin, 10 mg streptomycin, and 25 μg amphotericin B per mL; Sigma) and incubated for five days at 37 °C in 5% CO2 to differentiate into macrophages. Then, MDMs were cultured for 24 h with tested substances and the relative cell viability was determined by CCK-8 kit (Sigma) following manufacturer instructions.

[8] = tested on: vancomycin-resistant E. faecalis (VRE) 342B; test: In vitro antienterococcal activity, microtitration broth MIC; type: cell-based, Enterococcus faecalis; conditions: 24 h
[9] = tested on: methicillin-resistant S. aureus SA 3202; test: In vitro antistaphylococcal activity, microtitration broth MIC; type: cell-based; conditions: Staphylococcus aureus
[10] = tested on: methicillin-resistant S. aureus SA 630; test: as above; type: cell-based; conditions: Staphylococcus aureus
[11] = tested on: Enterococcus faecalis ATCC 29212; test: In vitro antienterococcal activity, microtitration broth MIC; type: cell-based
[12] = 24 h, MRSA 63718, read-out: log(1/MIC [M]) MRSA1 (converted)
[13] = MRSA 63718, 24 h, read-out: MIC MRSA1
[14] = 24 h, VRE 368, read-out: log(1/MIC [M]) VRE2 (converted)
[15] = VRE 368, 24 h, read-out: MIC VRE2
[16] = read-out: log(1/MIC [M]) VRE3 (converted)
[17] = ATCC29213, 24 h, S. aureus ATCC 29213, read-out: log(1/MIC [M]) SA (converted)
[18] = ATCC29213, S. aureus ATCC 29213, 24 h, read-out: MIC SA
[19] = ATCC700084, 72 h, M. smegmatis ATCC 700084, three days, read-out: MIC MS
[20] = ATCC700084, M. smegmatis ATCC 700084, read-out: log(1/MIC [M]) MS (converted)
[21] = read-out: log(1/MIC [M]) VRE1 (converted)
[22] = 24 h, MRSA SA 3202, read-out: log(1/MIC [M]) MRSA3 (converted)
[23] = MRSA SA 3202, 24 h, read-out: MIC MRSA3
[24] = 24 h, MRSA SA 630, read-out: log(1/MIC [M]) MRSA2 (converted)
[25] = MRSA SA 630, 24 h, read-out: MIC MRSA2
[26] = ATCC29212, 24 h, E. faecalis reference strain, read-out: log(1/MIC [M]) EF (converted)
[27] = ATCC29212, E. faecalis reference strain, 24 h, read-out: MIC EF

O=C(/C=C/c1ccc(Cl)cc1)Nc1cccc(C(F)(F)F)c1 [1i, (2E)-3-(4-Chlorophenyl)-N-[3-(trifluoromethyl)phenyl]prop-2-enamide]
MIC [1, 12]: 6.17e-06 M (≈ 2.01 µg/mL) | MIC [1, 13]: 6.14e-06 M (≈ 2 µg/mL) | MIC [2, 14]: > 0.000794 M | MIC [2, 15]: > 0.000786 M | MIC ([3]; read-out: MIC VRE3): > 0.000786 M | MIC [3, 16]: > 0.000794 M | MIC [4, 17]: 6.17e-06 M (≈ 2.01 µg/mL) | MIC [4, 18]: 6.14e-06 M (≈ 2 µg/mL) | MIC [5, 19]: > 0.000786 M | MIC [5, 20]: > 0.000794 M | log k [6]: 0.8612 | log D6.5 [6]: 0.8071 | log D7.4 [6]: 0.8105 | pIC50 [7]: < 5.00 | IC50 [7]: > 1e-05 M | MIC ([8]; read-out: MIC VRE1): > 0.000786 M | MIC [8, 21]: > 0.000794 M | MIC [9, 22]: 6.17e-06 M (≈ 2.01 µg/mL) | MIC [9, 23]: 6.14e-06 M (≈ 2 µg/mL) | MIC [10, 24]: 3.09e-06 M (≈ 1.01 µg/mL) | MIC [10, 25]: 3.07e-06 M (≈ 1 µg/mL) | MIC [11, 26]: > 0.000794 M | MIC [11, 27]: > 0.000786 M

O=C(/C=C/c1ccc(Cl)cc1)Nc1cc(Cl)cc(Cl)c1 [1p, (2E)-3-(4-Chlorophenyl)-N-(3,5-dichlorophenyl)prop-2-enamide]
MIC [1, 12]: 3.8e-07 M (≈ 0.124 µg/mL) | MIC [1, 13]: 3.83e-07 M (≈ 0.125 µg/mL) | MIC [2, 14]: > 0.000776 M | MIC [2, 15]: > 0.000783 M | MIC ([3]; read-out: MIC VRE3): > 0.000783 M | MIC [3, 16]: > 0.000776 M | activity against S. aureus and MRSA isolates (in words) [4]: submicromolar | MIC [4, 17]: 3.8e-07 M (≈ 0.124 µg/mL) | MIC [4, 18]: 3.83e-07 M (≈ 0.125 µg/mL) | MIC [5, 19]: 2.45e-05 M (≈ 8 µg/mL) | MIC [5, 20]: 2.45e-05 M (≈ 8.02 µg/mL) | log k [6]: 1.1899 | log D6.5 [6]: 1.1368 | log D7.4 [6]: 1.1366 | pIC50 [7]: < 5.00 | IC50 [7]: > 1e-05 M | MIC ([8]; read-out: MIC VRE1): > 0.000783 M | MIC [8, 21]: > 0.000776 M | MIC [9, 22]: 7.59e-07 M (≈ 0.248 µg/mL) | MIC [9, 23]: 7.65e-07 M (≈ 0.25 µg/mL) | MIC [10, 24]: 3.8e-07 M (≈ 0.124 µg/mL) | MIC [10, 25]: 3.83e-07 M (≈ 0.125 µg/mL) | MIC [11, 26]: > 0.000776 M | MIC [11, 27]: > 0.000783 M

O=C(/C=C/c1ccc(Cl)cc1)Nc1cc(C(F)(F)F)cc(C(F)(F)F)c1 [1q, (2E)-N-[3,5-bis(Trifluoromethyl)phenyl]-3-(4-chlorophenyl)prop-2-enamide]
MIC [1, 12]: 3.16e-07 M (≈ 0.125 µg/mL) | MIC [1, 13]: 3.18e-07 M (≈ 0.125 µg/mL) | MIC [2, 14]: 0.000324 M (≈ 127 µg/mL) | MIC [2, 15]: 0.000325 M (≈ 128 µg/mL) | MIC ([3]; read-out: MIC VRE3): 0.000325 M (≈ 128 µg/mL) | MIC [3, 16]: 0.000324 M (≈ 127 µg/mL) | activity against S. aureus and MRSA isolates (in words) [4]: submicromolar | MIC [4, 17]: 3.16e-07 M (≈ 0.125 µg/mL) | MIC [4, 18]: 3.18e-07 M (≈ 0.125 µg/mL) | MIC [5, 19]: 2.54e-06 M (≈ 1 µg/mL) | MIC [5, 20]: 2.51e-06 M (≈ 0.989 µg/mL) | log k [6]: 1.3064 | log D6.5 [6]: 1.2925 | log D7.4 [6]: 1.2980 | pIC50 [7]: < 5.00 | IC50 [7]: > 1e-05 M | MIC ([8]; read-out: MIC VRE1): 0.00065 M (≈ 256 µg/mL) | MIC [8, 21]: 0.000646 M (≈ 254 µg/mL) | MIC [9, 22]: 6.31e-07 M (≈ 0.248 µg/mL) | MIC [9, 23]: 6.35e-07 M (≈ 0.25 µg/mL) | MIC [10, 24]: 3.16e-07 M (≈ 0.125 µg/mL) | MIC [10, 25]: 3.18e-07 M (≈ 0.125 µg/mL) | MIC [11, 26]: 0.000324 M (≈ 127 µg/mL) | MIC [11, 27]: 0.000325 M (≈ 128 µg/mL)

O=C(/C=C/c1ccc(Cl)c(Cl)c1)Nc1ccccc1 [2a, (2E)-3-(3,4-Dichlorophenyl)-N-phenylprop-2-enamide]
MIC [1, 12]: > 0.000871 M | MIC [1, 13]: > 0.000876 M | MIC [2, 14]: > 0.000871 M | MIC [2, 15]: > 0.000876 M | MIC ([3]; read-out: MIC VRE3): > 0.000876 M | MIC [3, 16]: > 0.000871 M | MIC [4, 17]: 1.38e-05 M (≈ 4.03 µg/mL) | MIC [4, 18]: 1.36e-05 M (≈ 3.97 µg/mL) | MIC [5, 19]: 1.36e-05 M (≈ 3.97 µg/mL) | MIC [5, 20]: 1.38e-05 M (≈ 4.03 µg/mL) | log k [6]: 0.6199 | log D6.5 [6]: 0.6669 | log D7.4 [6]: 0.6354 | pIC50 [7]: < 5.00 | IC50 [7]: > 1e-05 M | MIC ([8]; read-out: MIC VRE1): > 0.000876 M | MIC [8, 21]: > 0.000871 M | MIC [9, 22]: > 0.000871 M | MIC [9, 23]: > 0.000876 M | MIC [10, 24]: > 0.000871 M | MIC [10, 25]: > 0.000876 M | MIC [11, 26]: 0.000871 M (≈ 254 µg/mL) | MIC [11, 27]: 0.000876 M (≈ 256 µg/mL)

— publication PMC8951032, “Study of Biological Activities and ADMET-Related Properties of Novel Chlorinated N-arylcinnamamides” (International Journal of Molecular Sciences, 2022)
